Experimental data taken from ChEMBL document CHEMBL3425509, “Design, synthesis, and biological evaluation of benzofuran- and 2,3-dihydrobenzofuran-2-carboxylic acid N-(substituted)phenylamide derivatives as anticancer agents and inhibitors of NF-κB” (Bioorg Med Chem Lett, 2015).

Key:
ACHN [1] = test: Cytotoxicity against human ACHN cells assessed as cell viability at 10 uM after 72 hrs by sulforhodamine B assay relative to control; assay type: functional; conditions: read-out: Activity
[2] = Cytotoxicity against human HCT15 cells assessed as cell viability at 10 uM after 72 hrs by sulforhodamine B assay relative to control; assay type: functional; conditions: HCT-15, 72 h, read-out: Activity
MDA-MB-231 [3] = test: Cytotoxicity against human MDA-MB-231 cells assessed as cell viability at 10 uM after 72 hrs by sulforhodamine B assay relative to control; assay type: functional; conditions: MDA-MB-231, 72 h, read-out: Activity
NCI-H23 [4] = test: Cytotoxicity against human NCI-H23 cells assessed as cell viability at 10 uM after 72 hrs by sulforhodamine B assay relative to control; assay type: functional; conditions: NCI-H23, 72 h, read-out: Activity
[5] = Cytotoxicity against human NUGC3 cells assessed as cell viability at 10 uM after 72 hrs by sulforhodamine B assay relative to control; assay type: functional; conditions: NUGC-3, 72 h, read-out: Activity
[6] = Cytotoxicity against human PC3 cells assessed as cell viability at 10 uM after 72 hrs by sulforhodamine B assay relative to control; assay type: functional; conditions: PC-3, 72 h, read-out: Activity
[7] = target: Nuclear factor NF-kappa-B complex (Homo sapiens) (UniProt Q00653+P19838+Q04206); test: Inhibition of NF-kappaB (unknown origin) transcriptional activity in LPS-induced mouse RAW264.7 cells at 30 uM after 1 hr by secreted alkaline phosphatase assay relative to control; assay type: cell-based
[8] = target: Nuclear factor NF-kappa-B complex (Homo sapiens, UniProt P19838+Q00653+Q04206); test: Inhibition of NF-kappaB (unknown origin) transcriptional activity in LPS-induced mouse RAW264.7 cells after 1 hr by secreted alkaline phosphatase assay; assay type: cell-based
[9] = Cytotoxicity against human PC3 cells assessed as growth inhibition after 72 hrs by sulforhodamine B assay; assay type: functional; conditions: PC-3, 72 h
ACHN [10] = test: Cytotoxicity against human ACHN cells assessed as growth inhibition after 72 hrs by sulforhodamine B assay; assay type: functional
[11] = Cytotoxicity against human HCT15 cells assessed as growth inhibition after 72 hrs by sulforhodamine B assay; assay type: functional; conditions: HCT-15, 72 h
MDA-MB-231 [12] = test: Cytotoxicity against human MDA-MB-231 cells assessed as growth inhibition after 72 hrs by sulforhodamine B assay; assay type: functional; conditions: MDA-MB-231, 72 h
NCI-H23 [13] = test: Cytotoxicity against human NCI-H23 cells assessed as growth inhibition after 72 hrs by sulforhodamine B assay; assay type: functional; conditions: NCI-H23, 72 h
[14] = Cytotoxicity against human NUGC3 cells assessed as growth inhibition after 72 hrs by sulforhodamine B assay; assay type: functional; conditions: NUGC-3, 72 h

Nuclear factor NF-kappa-B complex (Homo sapiens), sequence (P19838 whole entry, looked up): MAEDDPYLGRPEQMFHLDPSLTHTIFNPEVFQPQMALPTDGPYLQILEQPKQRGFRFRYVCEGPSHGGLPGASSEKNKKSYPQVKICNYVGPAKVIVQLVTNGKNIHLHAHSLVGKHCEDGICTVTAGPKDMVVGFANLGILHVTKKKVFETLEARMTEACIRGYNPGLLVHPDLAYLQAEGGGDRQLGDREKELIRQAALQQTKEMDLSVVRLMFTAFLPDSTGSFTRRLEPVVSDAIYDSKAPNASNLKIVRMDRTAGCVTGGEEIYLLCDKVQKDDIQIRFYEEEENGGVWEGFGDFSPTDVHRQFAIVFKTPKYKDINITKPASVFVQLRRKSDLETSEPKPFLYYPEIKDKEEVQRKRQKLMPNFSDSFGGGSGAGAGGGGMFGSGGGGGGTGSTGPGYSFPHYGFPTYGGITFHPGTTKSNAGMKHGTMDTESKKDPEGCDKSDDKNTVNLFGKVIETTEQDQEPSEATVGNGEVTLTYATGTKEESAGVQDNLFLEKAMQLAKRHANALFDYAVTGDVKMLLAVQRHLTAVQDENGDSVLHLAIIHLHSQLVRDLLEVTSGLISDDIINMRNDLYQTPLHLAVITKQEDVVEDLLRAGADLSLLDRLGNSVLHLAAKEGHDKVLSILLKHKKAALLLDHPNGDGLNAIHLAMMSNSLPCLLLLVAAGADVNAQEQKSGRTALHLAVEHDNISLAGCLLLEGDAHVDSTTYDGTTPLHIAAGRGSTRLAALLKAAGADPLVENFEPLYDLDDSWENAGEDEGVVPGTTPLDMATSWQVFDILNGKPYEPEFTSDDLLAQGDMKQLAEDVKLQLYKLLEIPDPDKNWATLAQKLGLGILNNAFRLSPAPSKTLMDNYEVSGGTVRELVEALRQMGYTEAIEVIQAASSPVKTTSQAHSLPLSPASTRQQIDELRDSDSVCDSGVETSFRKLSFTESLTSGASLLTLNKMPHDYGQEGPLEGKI
Nuclear factor NF-kappa-B complex (Homo sapiens), sequence (Q00653 whole entry, looked up): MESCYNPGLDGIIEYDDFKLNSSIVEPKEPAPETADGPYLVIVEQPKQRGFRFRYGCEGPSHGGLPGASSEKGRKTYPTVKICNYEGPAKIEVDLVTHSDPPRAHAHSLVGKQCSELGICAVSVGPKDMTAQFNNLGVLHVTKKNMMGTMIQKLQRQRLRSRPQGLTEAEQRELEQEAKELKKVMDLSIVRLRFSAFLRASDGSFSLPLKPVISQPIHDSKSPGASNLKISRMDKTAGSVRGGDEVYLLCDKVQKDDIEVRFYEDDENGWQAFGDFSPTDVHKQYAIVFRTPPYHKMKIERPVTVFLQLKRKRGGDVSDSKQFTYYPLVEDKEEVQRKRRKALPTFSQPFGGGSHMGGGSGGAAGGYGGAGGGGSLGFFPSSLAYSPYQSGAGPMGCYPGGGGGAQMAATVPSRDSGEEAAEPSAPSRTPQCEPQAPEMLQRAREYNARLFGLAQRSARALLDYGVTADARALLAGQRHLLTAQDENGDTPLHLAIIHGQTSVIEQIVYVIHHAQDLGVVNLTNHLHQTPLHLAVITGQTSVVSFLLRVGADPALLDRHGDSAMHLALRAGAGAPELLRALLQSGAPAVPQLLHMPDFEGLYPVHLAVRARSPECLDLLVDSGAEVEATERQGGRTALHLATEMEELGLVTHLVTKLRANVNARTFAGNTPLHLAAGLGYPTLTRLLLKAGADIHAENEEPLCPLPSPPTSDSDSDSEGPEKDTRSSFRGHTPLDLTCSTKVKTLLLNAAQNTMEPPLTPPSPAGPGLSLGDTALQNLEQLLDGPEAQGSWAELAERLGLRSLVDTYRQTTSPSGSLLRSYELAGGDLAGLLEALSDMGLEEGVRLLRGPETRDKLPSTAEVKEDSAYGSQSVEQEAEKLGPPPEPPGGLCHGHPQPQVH
Nuclear factor NF-kappa-B complex (Homo sapiens), sequence (Q04206 whole entry, looked up): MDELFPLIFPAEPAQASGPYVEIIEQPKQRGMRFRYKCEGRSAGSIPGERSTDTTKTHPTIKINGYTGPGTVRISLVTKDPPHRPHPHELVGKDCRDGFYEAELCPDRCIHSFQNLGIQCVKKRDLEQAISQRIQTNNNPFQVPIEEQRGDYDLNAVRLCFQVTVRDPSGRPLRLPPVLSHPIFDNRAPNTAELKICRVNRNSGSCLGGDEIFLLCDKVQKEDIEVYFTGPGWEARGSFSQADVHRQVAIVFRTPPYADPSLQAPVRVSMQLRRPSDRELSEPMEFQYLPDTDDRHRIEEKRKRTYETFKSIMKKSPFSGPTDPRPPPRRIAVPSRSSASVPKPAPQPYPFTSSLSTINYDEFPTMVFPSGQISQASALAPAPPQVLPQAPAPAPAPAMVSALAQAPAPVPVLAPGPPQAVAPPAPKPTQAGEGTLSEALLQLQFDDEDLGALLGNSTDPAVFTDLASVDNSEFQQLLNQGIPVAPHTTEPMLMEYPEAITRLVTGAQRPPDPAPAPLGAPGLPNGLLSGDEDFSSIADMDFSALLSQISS
Nuclear factor NF-kappa-B complex, sequence (P19838 1-433 limits assumed): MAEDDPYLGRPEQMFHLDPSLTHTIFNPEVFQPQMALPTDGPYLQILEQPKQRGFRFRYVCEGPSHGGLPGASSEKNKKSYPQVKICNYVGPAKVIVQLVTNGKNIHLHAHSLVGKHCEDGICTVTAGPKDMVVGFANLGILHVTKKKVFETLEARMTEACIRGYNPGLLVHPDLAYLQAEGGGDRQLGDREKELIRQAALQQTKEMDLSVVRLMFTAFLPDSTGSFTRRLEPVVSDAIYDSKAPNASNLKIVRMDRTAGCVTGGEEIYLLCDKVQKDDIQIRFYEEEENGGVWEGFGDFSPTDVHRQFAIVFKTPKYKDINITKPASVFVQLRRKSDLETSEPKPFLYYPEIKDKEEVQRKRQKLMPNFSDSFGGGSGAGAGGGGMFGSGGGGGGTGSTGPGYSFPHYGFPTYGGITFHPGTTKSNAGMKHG
Nuclear factor NF-kappa-B complex, sequence (Q00653 1-454 limits assumed): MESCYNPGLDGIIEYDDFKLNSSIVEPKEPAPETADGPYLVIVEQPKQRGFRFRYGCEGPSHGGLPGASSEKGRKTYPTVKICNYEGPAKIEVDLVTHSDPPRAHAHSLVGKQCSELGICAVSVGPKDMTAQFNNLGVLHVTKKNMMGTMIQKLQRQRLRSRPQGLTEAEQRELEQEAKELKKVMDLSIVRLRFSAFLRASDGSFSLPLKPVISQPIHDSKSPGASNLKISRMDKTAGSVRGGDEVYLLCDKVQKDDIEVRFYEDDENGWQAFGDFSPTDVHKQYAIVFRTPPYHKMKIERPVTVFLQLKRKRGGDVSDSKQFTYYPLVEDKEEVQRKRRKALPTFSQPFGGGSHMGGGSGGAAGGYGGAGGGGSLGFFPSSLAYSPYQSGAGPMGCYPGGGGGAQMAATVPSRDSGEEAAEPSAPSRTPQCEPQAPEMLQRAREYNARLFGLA
Nuclear factor NF-kappa-B complex, sequence (Q04206 whole entry): as the sequence (Q04206 whole entry, looked up) above

SMILES	viability at 10 µM (ACHN [1])	viability at 10 µM [2]	viability at 10 µM (MDA-MB-231 [3])	viability at 10 µM (NCI-H23 [4])	viability at 10 µM [5]	viability at 10 µM [6]	inhibition [7]	IC50 [8]	GI50 [9]	GI50 (ACHN [10])	GI50 [11]	GI50 (MDA-MB-231 [12])	GI50 (NCI-H23 [13])	GI50 [14]
O=C(Nc1cccc([N+](=O)[O-])c1)c1cc2ccccc2o1	93%	88%	111%	99%	98%	95%	11%							
O=C(Nc1ccccc1O)C1Cc2ccccc2O1 (stereo not given)	134%	102%	83%	102%	103%	109%	20.5%							
COc1ccc(OC)c(NC(=O)C2Cc3ccccc3O2)c1 (stereo not given)	126%	97%	89%	99%	95%	81%	39.5%							
Cc1ccc(NC(=O)c2cc3ccccc3o2)cc1	96%	82%	105%	104%	95%	103%	34.5%							
Cc1ccc(NC(=O)C2Cc3ccccc3O2)cc1C (stereo not given)	137%	97%	86%	92%	99%	94%	44.5%							
COc1ccccc1NC(=O)c1cc2ccccc2o1	95%	94%	97%	98%	99%	106%	41%							
O=C(Nc1ccccc1[N+](=O)[O-])C1Cc2ccccc2O1 (stereo not given)	108%	94%	92%	97%	89%	89%	28.5%							
O=C(Nc1ccccc1Cl)C1Cc2ccccc2O1 (stereo not given)	87%	102%	81%	104%	104%	96%	37.5%							
O=C(Nc1ccc(Cl)c(Cl)c1)C1Cc2ccccc2O1 (stereo not given)	109%	88%	98%	94%	107%	99%	65%	23000 nM						
Cc1ccccc1NC(=O)C1Cc2ccccc2O1 (stereo not given)	108%	88%	103%	91%	91%	87%	38%							
O=C(Nc1cc(Cl)cc(Cl)c1)C1Cc2ccccc2O1 (stereo not given)	89%	98%	89%	99%	114%	89%	75%							
Cc1ccc(NC(=O)c2cc3ccccc3o2)cc1C	103%	95%	92%	100%	91%	92%	70%							
O=C(Nc1ccc([N+](=O)[O-])cc1)C1Cc2ccccc2O1 (stereo not given)	93%	81%	85%	77%	86%	10%	34%		1860 nM					
O=C(Nc1cccc(C(F)(F)F)c1)C1Cc2ccccc2O1 (stereo not given)	134%	95%	102%	100%	93%	69%	30.5%							
COc1cccc2c1C(=O)c1c(O)c3c(c(O)c1C2=O)C[C@@](O)(C(=O)CO)C[C@@H]3O[C@H]1C[C@H](N)[C@H](O)[C@H](C)O1 [DOXORUBICIN]									910 nM	200 nM	450 nM	560 nM	400 nM	190 nM
Cc1ccc(C)c(NC(=O)c2cc3ccccc3o2)c1	82%	94%	102%	94%	88%	98%	58%							
O=C(Nc1cc(C(F)(F)F)cc(C(F)(F)F)c1)C1Cc2ccccc2O1 (stereo not given)	94%	92%	105%	92%	105%	96%	25%							
